In patent publication US20040077674A1, “Mappicine analogs, intermediates in the synthesis of mappicine analogs and methods of synthesis of mappicine analogs” (priority 2002, published 2004):

Tests used:
[1] = biological target: T1, RNase H activity of HIV reverse transcriptase (Human immunodeficiency virus type 1 group M subtype B, UniProt P03366); experiment: Fluorescence (FRET)-based RNase H assay of HIV reverse transcriptase; format: biochemical, HIV-1; details: for Residual activity (%) RNase H: 10 μM inhibitor concentration, activity in presence / in absence of analog x 100
T1 construct: 2.5 nM of the p51/p66 RT heterodimer in the assay; made in house
Experimental: Recently, a fluorescence-based assay to perform screens in search of HIV RNase H inhibitors has been developed. The assay, which is carried out in 96-well microplates and is adaptable to robotics, is the first high-throughput screen for RNase H and is described in further detail in the Experimental section. HIV-1 RT and human RNase H were cloned, and thus comparative analysis of inhibitor action could be conducted simultaneously.
The assay for RNase H activity of HIV reverse transcriptase was the fluorescence-based assay described in detail in the Experimental section and discussed in U.S. Provisional Patent Application Serial No. 60/318,359. Assays were carried out in the absence and in the presence of mappicine analogs (10 μM or 20 μM final concentration). The results are reported as % residual activity, which is the RNase H activity of the enzyme in the presence of the mappicine analog divided by the RNase H activity of the enzyme in the absence of the mappicine analog, multiplied by 100. Alternatively, the results are reported as % inhibition, which is calculated as the ratio of the RNase H activity of the enzyme in the presence of the mappicine analog to the enzyme activity in the absence of the mappicine analog, multiplied by 100, and then subtracting this number from 100.
Assay for Ribonuclease H Activity Based on Fluorescence Resonance Energy Transfer (FRET)
Preparation of the Fluorophore-RNA/Quencher-DNA Hybrid Duplex Substrate.
The RNA/DNA hybrid duplex substrate for use in the assay comprises an RNA oligonucleotide of sequence 5′-GAU CUG AGC CUG GGA GCU-3′, modified at the 3′-end with Aminolink-2 and derivatized with fluorescein isothiocyanate, to provide a modified RNA oligonucleotide of the sequence 5′-GAU CUG AGC CUG GGA GCU-fluorescein-3′, annealed to a complementary DNA oligonucleotide of the sequence 5′-AGC TCC CAG GCT CAG ATC-3′ modified at the 5′-end with Aminolink-2 and derivatized with the FRET acceptor DABCYL succinimidyl ester, to provide a modified DNA oligonucleotide of the sequence 5′-DABCYL-AGC TCC CAG GCT CAG ATC-3′.
To prepare the 3′-fluorescein-RNA/5′-DABCYL-DNA hybrid duplex substrate, a known amount of 3′-fluorescein-RNA was dissolved in 20 mM Tris buffer (pH 8.0, 37° C.) to provide a final concentration of 5 μM. Two equivalents of the 5′-DABCYL-DNA oligonucleotide were added, and the mixture was heated to 90° C. for 5 min and cooled slowly to room temperature to allow duplex formation. The positioning of the fluorescein donor at the 3′-end of the RNA oligonucleotide and the DABCYL acceptor at the 5′-end of the DNA oligonucleotide provides a very close proximity of the donor and acceptor that results in a very intense quenching of the fluorescein emission in the intact RNA/DNA hybrid duplex substrate due to the spectral overlap of the fluorescence emission of fluorescein with the absorption spectrum of DABCYL. In addition, DABCYL is non-fluorescent, and thus cannot contribute any light emission. Both of these factors result in a very low background and provide a high signal-to-noise in the assay measurements. The ratio of the donor fluorescence in the absence and in the presence of its quencher is approximately fifteen-fold.
Microplate Assay Protocol for the Measurement of RNase H Activity Using the RNA/IDNA Hybrid Duplex Substrate.
Reaction assay mixtures contained 5 μl of a stock solution of 2.5 μM RNA/DNA hybrid duplex substrate added to 85 μl of assay buffer (50 mM Tris, pH 8.0, 37° C., containing 60 mM KCl and 2.5 mM MgCl2), prepared in the wells of a 96-well fluorescence microtiter plate, and warmed to 37° C. using the temperature control of the SpectraMax Gemini XS microplate spectrofluorometer (Molecular Devices). Reactions were started by the addition of 5 μl of a solution of recombinant HIV-1 reverse transcriptase (usually providing a final concentration of 2.5 nM of the p51/p66 RT heterodimer in the assay), and mixing using the automatic mixing function of the microplate spectrofluorometer. […]

[2] = biological target: T2, RNA-dependent DNA polymerase activity of HIV reverse transcriptase (Human immunodeficiency virus type 1 group M subtype B, UniProt P03366); experiment: RNA-dependent DNA polymerase activity assay of HIV reverse transcriptase; format: biochemical, HIV-1; details: 10 μM inhibitor concentration; activity in presence / in absence of analog x 100
T2 construct: made in house
Experimental: In separate representative assays, mappicine analogs were tested for their ability to inhibit the RNA-dependent DNA polymerase activity of HIV reverse transcriptase and for their ability to inhibit the RNase H activity of HIV reverse transcriptase. The assay for RNA-dependent DNA polymerase activity is discussed in Borkow, G. et al., “Inhibition of the Ribonuclease H and DNA Polymerase Activities of HIV-1 Reverse Transcriptase by N-(4-tert-Butylbenzoyl)-2-hydroxy-1-naphthaldehyde Hydrazone,” Biochemistry 1997, 36, 3179-3185, a copy of which is attached hereto and the disclosure of which is incorporated herein by reference. Assays were carried out in the absence and in the presence of mappicine analogs (10 μM final concentration). The results are reported as % residual activity, which is the RNA-dependent DNA polymerase activity of the enzyme in the presence of the mappicine analog divided by the RNA-dependent activity of the enzyme in the absence of the mappicine analog, multiplied by 100.

| Structure (SMILES) | Residual activity (%) RNase H [1] | Residual activity (%) Polymerase [2] | % inhibition of RNase H at 20 μM ([1]; 20 μM inhibitor concentration) | inhibition at 20 µM ([1]; 20 μM inhibitor concentration) |
| --- | --- | --- | --- | --- |
| CCC(=O)c1cc2n(c(=O)c1C)Cc1c-2nc2ccccc2c1[Si](C)(C)C(C)(C)C [5 (4Aακ)] | 76% | 43% |  |  |
| Cc1c(C(=O)CCC2CCCCC2)cc2n(c1=O)Cc1c-2nc2ccc(F)cc2c1-c1ccccc1 [5 (3Bδκ)] | 93% | 59% |  |  |
| COc1ccc2nc3c(c(-c4ccccc4)c2c1)Cn1c-3cc(C(=O)CCC2CCCCC2)c(C)c1=O [5 (3Dδκ)] | 97% | 81% |  |  |
| Cc1c(C(=O)C(C)(C)C)cc2n(c1=O)Cc1c-2nc2ccccc2c1[Si](C)(C)C [5 (5Aβκ)] | 97% | 47% |  |  |
| Cc1ccc2nc3c(c([Si](C)(C)C)c2c1)Cn1c-3cc(C(O)C(C)(C)C)c(C)c1=O (centres unmarked) [5 (5Cβ)] | 80% | 72% |  |  |
| CCC(=O)c1cc2n(c(=O)c1C)Cc1c-2nc2ccc(OC)cc2c1-c1ccccc1 [5 (3Dακ)] | 104% | 76% |  |  |
| CCCCCCc1c2c(nc3ccc(F)cc13)-c1cc(C(O)CCC3CCCCC3)c(C)c(=O)n1C2 (centres unmarked) [5 (8Bδ)] | 112% | 90% |  |  |
| CCCCCCc1c2c(nc3ccccc13)-c1cc(C(O)C(C)(C)C)c(C)c(=O)n1C2 (centres unmarked) [5 (8Aβ)] | 91% | 103% |  |  |
| Cc1ccc2nc3c(c([Si](C)(C)C(C)(C)C)c2c1)Cn1c-3cc(C(O)C(C)(C)C)c(C)c1=O (centres unmarked) [5 (4Cβ)] | 94% | 67% |  |  |
| Cc1c(C(O)C(C)(C)C)cc2n(c1=O)Cc1c-2nc2ccc(F)cc2c1[Si](C)(C)C(C)(C)C (centres unmarked) [5 (4Bβ)] | 113% | 49% |  |  |
| Cc1c(C(=O)CCC2CCCCC2)cc2n(c1=O)Cc1c-2nc2ccccc2c1-c1ccccc1 [5 (3Aδκ)] | 73% | 66% |  |  |
| CCC(=O)c1cc2n(c(=O)c1C)Cc1c-2nc2ccc(C)cc2c1-c1ccccc1 [5 (3Cακ)] | 99% | 71% |  |  |
| CCCCCCc1c2c(nc3ccc(OC)cc13)-c1cc(C(O)CCC3CCCCC3)c(C)c(=O)n1C2 (centres unmarked) [5 (8Dδ)] | 63% | 81% |  |  |
| Cc1c(C(=O)C(C)(C)C)cc2n(c1=O)Cc1c-2nc2ccccc2c1-c1ccccc1 [5 (3Aβκ)] | 94% | 64% |  |  |
| COc1ccc2nc3c(c([Si](C)(C)C(C)(C)C)c2c1)Cn1c-3cc(C(=O)C(C)(C)C)c(C)c1=O [5 (4Dβκ)] | 97% | 64% |  |  |
| Cc1c(C(O)CCC2CCCCC2)cc2n(c1=O)Cc1c-2nc2ccc(F)cc2c1[Si](C)(C)C(C)(C)C (centres unmarked) [5 (4Bδ)] | 90% | 44% |  |  |
| Cc1c(C(O)CCC2CCCCC2)cc2n(c1=O)Cc1c-2nc2ccccc2c1-c1ccccc1 (centres unmarked) [5 (3Aδ)] | 104% | 32% |  |  |
| CCCCCCc1c2c(nc3ccc(OC)cc13)-c1cc(C(=O)CC)c(C)c(=O)n1C2 [5 (8Dακ)] | 84% | 51% |  |  |

| Structure (SMILES) | Residual activity (%) RNase H [1] | Residual activity (%) Polymerase [2] | % inhibition of RNase H at 20 μM ([1]; 20 μM inhibitor concentration) | inhibition at 20 µM ([1]; 20 μM inhibitor concentration) |
| --- | --- | --- | --- | --- |
| CCC(O)c1cc2n(c(=O)c1C)Cc1c-2nc2ccc(OC)cc2c1-c1ccccc1 (centres unmarked) [5 (3Dα)] | 78% | 69% |  |  |
| COc1ccc2nc3c(c([Si](C)(C)C)c2c1)Cn1c-3cc(C(O)C(C)(C)C)c(C)c1=O (centres unmarked) [5 (5Dβ)] | 102% | 76% |  |  |
| Cc1c(C(=O)CCC2CCCCC2)cc2n(c1=O)Cc1c-2nc2ccc(F)cc2c1[Si](C)(C)C(C)(C)C [5 (4Bδκ)] | 96% | 56% |  |  |
| CCC(O)c1cc2n(c(=O)c1C)Cc1c-2nc2ccc(C)cc2c1[Si](C)(C)C(C)(C)C (centres unmarked) [5 (4Cα)] | 91% | 94% |  |  |
| Cc1ccc2nc3c(c([Si](C)(C)C(C)(C)C)c2c1)Cn1c-3cc(C(=O)CCC2CCCCC2)c(C)c1=O [5 (4Cδκ)] | 96% | 52% |  |  |
| CCCCCCc1c2c(nc3ccc(F)cc13)-c1cc(C(=O)C(C)(C)C)c(C)c(=O)n1C2 [5 (8Bβκ)] | 81% | 44% |  |  |
| CCCCCCc1c2c(nc3ccc(OC)cc13)-c1cc(C(=O)C(C)(C)C)c(C)c(=O)n1C2 [5 (8Dβκ)] | 88% | 90% |  |  |
| CCCCCCc1c2c(nc3ccc(F)cc13)-c1cc(C(O)Cc3ccccc3)c(C)c(=O)n1C2 (centres unmarked) [5 (8Bε)] | 84% | 92% |  |  |
| CCc1c2c(nc3ccccc13)-c1cc(C(O)CC)c(C)c(=O)n1C2 (centres unmarked) [5 (AG 4M)] | 74% | 100% |  |  |
| Cc1ccc2nc3c(c(-c4ccccc4)c2c1)Cn1c-3cc(C(=O)CCC2CCCCC2)c(C)c1=O [5 (3Cδκ)] | 93% | 65% |  |  |
| COc1ccc2nc3c(c([Si](C)(C)C(C)(C)C)c2c1)Cn1c-3cc(C(O)CCC2CCCCC2)c(C)c1=O (centres unmarked) [5 (4Dδ)] | 87% | 51% |  |  |
| Cc1ccc2nc3c(c(-c4ccccc4)c2c1)Cn1c-3cc(C(O)C(C)(C)C)c(C)c1=O (stereo not drawn) [5 (30β)] | 84% | 70% |  |  |
| CCCCCCc1c2c(nc3ccc(C)cc13)-c1cc(C(O)CCC3CCCCC3)c(C)c(=O)n1C2 (centres unmarked) [5 (8Cδ)] | 72% | 73% |  |  |
| CCCCCCc1c2c(nc3ccc(F)cc13)-c1cc(C(O)C(C)(C)C)c(C)c(=O)n1C2 (centres unmarked) [5 (8Bβ)] | 97% | 50% |  |  |
| CCCCc1c2c(nc3ccc(CC)cc13)-c1cc(C(O)C(C)C)c(C)c(=O)n1C2 (centres unmarked) [Compound 5.6.5] |  |  | 100% |  |
| CCc1c2c(nc3ccc(C(F)(F)F)cc13)-c1cc(C(O)C3CCCCC3)c(C)c(=O)n1C2 (centres unmarked) [Compound 6.4.4] |  |  | 65% |  |
| CCCCCc1c2c(nc3ccc(F)cc13)-c1cc(C(O)C(C)CC)c(C)c(=O)n1C2 (centres unmarked) [Compound 4.7.2] |  |  | 58% |  |
| CCCCCc1c2c(nc3c(F)cccc13)-c1cc(C(O)CC)c(C)c(=O)n1C2 (centres unmarked) [Compound 3.7.8, 4-Fluoro-7-(1-hydroxypropyl)-8-methyl-12-pentyl-1 1H-indolizino [1,2-b]quinolin-9-one] |  |  |  | 82% |
